Test results taken from patent US7888527B2 (University of Virginia Patent Foundation, priority 2004, dated 2011).

Assays:
[1] = Metabolic stability in biologic systems (mouse); assay type: in vivo; conditions: in a mouse
[2] = system: S1P receptors; experiment: Antagonist properties (potency, S1P receptor type selectivity) compared with VPC23019
[3] = target: T1, human S1P1 receptor (Homo sapiens, UniProt P21453); experiment: [γ-35S]GTP binding assay, HEK293T membranes (agonism and Schild antagonism); assay type: biochemical; design: expressed in transfected cells; host or cells: HEK293T, transient transfection; membranes; key to Schild analysis flag on pKb S1P1: *: Based on Schild analysis, the antagonism observed was not competitive; conditions: for Kb: read-out: pKb S1P1 (converted); for Agonist efficacy class S1P1: relative to S1P Emax; for EC50: -log molar concentration giving 50% of maximal [γ-35S]GTP binding, ± S.E.M., read-out: pEC50 S1P1 (converted)
Text: (§1) The appropriate receptor plasmid DNA (encoding human S1P1, human S1P2, human S1P3, human S1P4, human S1P5, human LPA1, human LPA2 or human LPA3 receptors) is mixed with equal amounts of expression plasmids encoding human Gi2α (for S1P3, a mutated (C352F) rat Gi2α is used), cow β1, and cow γ2 proteins, and these DNAs are used to transfect monolayers of HEK293T cells (where ‘T’ indicates expression of the SV-40 virus large T antigen) using the calcium phosphate precipitate method (7). After about 60 hours, cells are harvested, membranes prepared, aliquoted, and stored at −70° C. until use (8).
(§2) The [γ-^35S]GTP binding assay is performed as described previously (8). Membranes containing 1-5 μg of protein are incubated in 0.1 ml of binding buffer (in mM: HEPES/50, NaCl/100, MgCl2/10, pH 7.5) containing 5 μg of saponin, 10 μM GDP, 0.1 nM [γ-^35S]GTP (1200 Ci/mmol), and indicated lipid(s) for 30 min at 30° C. and collected using a Brandel Cell Harvester (Gaithersburg, Md.). Samples are then analyzed for bound radionuclide.
(§3) Briefly, nonlinear analysis of the best-fit line generated by plotting the negative log of the EC50 values obtained from agonist dose-response curves, in the absence and presence of varying concentrations of antagonist, was plotted against the concentration of antagonist to give the Kb value.
(§4) Statistical Analysis. The EC50 and IC50 values for all dose response curves were determined by nonlinear regression analysis of all data using the Graphpad Prism© program. The error associated with the data collected is reported as the standard error of the mean (S.E.M).

[4] = target: T1, human S1P1 receptor; experiment: Cell migration assay, T24 cells transfected stably with human S1P1 receptor; assay type: cell-based; design: expressed in transfected cells; conditions: 50 nM antagonist
Protocol: (§5) […] monolayers are co-transfected with the human S1P1, S1P2, S1P3 receptor encoding DNAs and the pIRESpuro2 plasmid DNA (Clontech, San Jose, Calif.,) using either Lipofectamine 2000 (Invitrogen, Carlsbad, Calif.) or FuGENE 6 (Roche Applied Science, Indianapolis, Ind.). Clonal populations expressing the puromycin acetyltransferase gene are selected by addition of puromycin (Sigma-Aldrich, St. Louis, Mo.) to the culture media. T24 cells are grown in monolayers at 37° C. in a 5% CO2/95% air atmosphere in growth media consisting of: 95% DMEM/F-12 medium and 10% charcoal/dextran stripped FBS.
Cell migration assays are performed using modified Boyden chambers (tissue culture-treated, 24-mm diameter, 10-μm thickness, 8-μm pores, Transwell®; Costar Corp., Cambridge, Mass.) containing polycarbonate membranes that are coated on the underside with 0.1% gelatin. The underside of the polycarbonate membranes is rinsed once with migration media (DMEM/F12 without Phenol Red and 0.1% fatty acid free BSA) and then immersed in the lower chamber containing two milliliters of migration media. T24 cells transfected stably with human S1P1 receptor DNA were grown in DMEM/F12 media containing charcoal/dextran stripped FBS and 10 μg/ml puromycin to 100% confluence in 150×2.5 mm tissue culture plates and serum starved at least 12 hours. Serum-starved cells were removed from culture dishes with 10× Trypsin-EDTA (Hanks' balanced salt solution containing 5 mM EDTA and 25 mM HEPES, pH 7.2, and 0.1% trypsin; Invitrogen, San Diego, Calif.), suspended in migration buffer and collected by centrifugation at 130×g for 5 minutes. The supernatant fluid was removed by aspiration and cell pellet resuspended in migration media (10^6 cells/ml). […] The non-migrating cells in the upper chamber were removed by aspiration and the migratory cells attached to the bottom surface of the membrane were isolated by incubation in 10× Trypsin-EDTA for 1 min at room temperature and gently tapping the plate to dislodge cells from the membrane. The mass of migratory cells per membrane was evaluated by combining 100 μl of cell suspension with an equal volume of CyQuant dye solution (3.0 ml of 2× lysis buffer and 15 μl CyQuant dye), and the resulting fluorescence quantified using the FlexStation™ fluorimeter (Molecular Devices, Menlo Park, Calif.). Each determination represents the average of two individual migration chambers. […] The monolayer was washed three times with phosphate buffered saline and processed immediately for the cell migration assay, as described above.

[5] = target: T2, human S1P3 receptor (Homo sapiens, UniProt Q99500); experiment: [γ-35S]GTP binding assay, HEK293T membranes (agonism and Schild antagonism); assay type: biochemical; design: expressed in transfected cells; host or cells: HEK293T, transient transfection; membranes; key to Schild analysis flag on pKb S1P3: *: Based on Schild analysis, the antagonism observed was not competitive; conditions: for Kb: read-out: pKb S1P3 (converted); for Agonist efficacy class S1P3: relative to S1P Emax; for EC50: -log molar concentration giving 50% of maximal [γ-35S]GTP binding, ± S.E.M., read-out: pEC50 S1P3 (converted)
Text: as §1, §2, §3, §4

[6] = target: T3, S1P2 receptor (Homo sapiens, UniProt O95136); experiment: [γ-35S]GTP binding assay, HEK293T membranes; assay type: biochemical; conditions: for EC50: -log molar concentration giving 50% of maximal [γ-35S]GTP binding, ± S.E.M., read-out: pEC50 S1P2 (converted)
T3 construct: expressed in transfected cells; host or cells: HEK293T, transient transfection; membranes
Text: as §1, §2, §4

[7] = target: T4, human S1P4 receptor (Homo sapiens, UniProt O95977); experiment: [γ-35S]GTP binding assay, HEK293T membranes; assay type: biochemical; conditions: -log molar concentration giving 50% of maximal [γ-35S]GTP binding; ± S.E.M.; read-out: pEC50 S1P4 (converted)
T4 construct: expressed in transfected cells; host or cells: HEK293T, transient transfection; membranes
T4 sequence (O95977 1-384): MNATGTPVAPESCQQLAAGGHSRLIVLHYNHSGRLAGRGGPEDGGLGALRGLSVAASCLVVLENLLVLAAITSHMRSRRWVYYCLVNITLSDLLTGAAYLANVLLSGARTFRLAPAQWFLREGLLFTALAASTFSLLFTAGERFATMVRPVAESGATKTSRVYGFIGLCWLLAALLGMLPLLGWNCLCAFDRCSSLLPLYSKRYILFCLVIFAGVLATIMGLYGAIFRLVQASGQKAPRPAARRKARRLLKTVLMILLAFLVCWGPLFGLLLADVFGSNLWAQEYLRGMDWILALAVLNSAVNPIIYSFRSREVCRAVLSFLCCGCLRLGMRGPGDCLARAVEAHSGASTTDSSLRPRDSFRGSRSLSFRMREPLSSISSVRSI
Text: as §1, §2, §4

[8] = target: T5, human S1P5 receptor (Homo sapiens, UniProt Q9H228); experiment: [γ-35S]GTP binding assay, HEK293T membranes; assay type: biochemical; conditions: for EC50: -log molar concentration giving 50% of maximal [γ-35S]GTP binding, ± S.E.M., read-out: pEC50 S1P5 (converted); for Agonist efficacy class S1P5: relative to S1P Emax
T5 construct: expressed in transfected cells; host or cells: HEK293T, transient transfection; membranes
Text: as §1, §2, §4

[9] = target: T2, human S1P3 receptor; experiment: [32P]S1P binding assay, HEK293T membranes; design: expressed in transfected cells; host or cells: HEK293T, transient transfection; membranes; conditions: for Ki: read-out: pKi S1P3 (converted)
Protocol: (§6) [^32P]-S1P was prepared by incubating sphingosine and [γ-^32P]ATP with cell lysate from HEK293T cells transiently transfected with human sphingosine kinase type 2 DNA. The 200 μl reaction contained 0.025 mM sphingosine, 1 mCi [γ-^32P]ATP (7000 Ci/mmol) and kinase buffer (in mM: Mg(C2H3O2)2 (in 50 mM Tris, pH 7.5)/10, NaF/10, and semicarbizide/2). The reaction was initiated by the addition of 20 μg of cell lysate and incubated at 37° C. for at least 30 minutes. […] The organic layer was isolated and the extraction procedure repeated two additional times with the remaining aqueous fraction. The combined organic fractions were dried under a stream of nitrogen gas and resuspended in aqueous 0.1% fatty acid free BSA.
(§7) Bound ligand was separated from free ligand by rapid filtration and analyzed in a liquid scintillation counter.
as §4

[10] = target: T1, human S1P1 receptor; experiment: [32P]S1P binding assay, HEK293T membranes; design: expressed in transfected cells; host or cells: HEK293T, transient transfection; membranes; conditions: read-out: pKi S1P1 (converted)
Protocol: as §6, §7, §4

[11] = target: T2, human S1P3 receptor; experiment: Intracellular calcium mobilization, T24 cells transfected stably with human S1P3 receptor; assay type: cell-based; design: expressed in transfected cells; conditions: T24-S1P3 cells versus wild-type T24 cells
Protocol: as §5
A FlexStation™ fluorimeter (Molecular Devices, Menlo Park, Calif.) was used to measure intracellular calcium in native T24 cells and T24 cells transfected stably with either human S1P2 or human S1P3 receptor DNA. Cells were seeded (˜50,000 cells/well) in 96-well, clear bottom black microplates (Corning Costar Corp.) and left overnight at 37° C. The cells were dye-loaded with 4 μM Fluo-4AM ester in a loading buffer (Hank's Balanced Salt Solution, […], containing 20 mM HEPES, 0.1% fatty acid free BSA, and 2.5 mM probenecid) for 30 minutes at 37° C. After washing cell monolayers three times with phosphate buffered saline, loading buffer was added and the cells exposed to sets of compounds for 3 minutes at 25° C. in the FlexStation™. In all cases, each concentration of every compound was tested in at least triplicate. […] The cells were washed with phosphate buffered saline and exposed to compounds immediately, as described above.
as §3

T2 sequence (Q99500 whole entry): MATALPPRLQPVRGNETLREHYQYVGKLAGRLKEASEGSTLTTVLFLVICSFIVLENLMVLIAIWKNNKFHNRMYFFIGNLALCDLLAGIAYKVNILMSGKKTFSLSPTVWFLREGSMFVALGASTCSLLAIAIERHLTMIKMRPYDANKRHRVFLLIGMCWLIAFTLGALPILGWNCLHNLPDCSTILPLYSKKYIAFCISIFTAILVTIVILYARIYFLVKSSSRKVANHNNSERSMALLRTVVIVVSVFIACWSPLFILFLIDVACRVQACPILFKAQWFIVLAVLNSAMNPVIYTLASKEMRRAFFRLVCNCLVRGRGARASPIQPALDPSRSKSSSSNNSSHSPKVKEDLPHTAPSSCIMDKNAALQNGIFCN
T1 sequence (P21453 whole entry): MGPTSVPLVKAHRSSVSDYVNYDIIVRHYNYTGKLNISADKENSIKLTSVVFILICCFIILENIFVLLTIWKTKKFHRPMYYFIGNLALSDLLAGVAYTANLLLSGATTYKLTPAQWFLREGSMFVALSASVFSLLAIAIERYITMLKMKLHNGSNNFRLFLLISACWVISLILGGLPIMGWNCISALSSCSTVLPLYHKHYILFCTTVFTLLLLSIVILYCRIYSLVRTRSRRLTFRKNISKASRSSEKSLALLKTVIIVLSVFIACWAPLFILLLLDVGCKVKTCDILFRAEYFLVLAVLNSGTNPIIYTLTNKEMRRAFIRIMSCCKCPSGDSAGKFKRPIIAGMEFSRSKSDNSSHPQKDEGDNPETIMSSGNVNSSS
T5 sequence (Q9H228 whole entry): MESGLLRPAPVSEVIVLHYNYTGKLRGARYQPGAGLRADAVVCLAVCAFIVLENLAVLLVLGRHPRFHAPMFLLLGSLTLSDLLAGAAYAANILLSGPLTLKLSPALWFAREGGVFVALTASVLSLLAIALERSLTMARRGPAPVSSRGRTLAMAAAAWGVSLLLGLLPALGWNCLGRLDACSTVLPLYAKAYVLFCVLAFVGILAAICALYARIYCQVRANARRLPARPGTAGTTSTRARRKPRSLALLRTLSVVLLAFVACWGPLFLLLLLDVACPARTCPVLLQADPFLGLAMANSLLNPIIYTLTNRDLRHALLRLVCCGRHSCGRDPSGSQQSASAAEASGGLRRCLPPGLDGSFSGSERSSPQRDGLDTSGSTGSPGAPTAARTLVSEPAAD
T3 sequence (O95136 whole entry): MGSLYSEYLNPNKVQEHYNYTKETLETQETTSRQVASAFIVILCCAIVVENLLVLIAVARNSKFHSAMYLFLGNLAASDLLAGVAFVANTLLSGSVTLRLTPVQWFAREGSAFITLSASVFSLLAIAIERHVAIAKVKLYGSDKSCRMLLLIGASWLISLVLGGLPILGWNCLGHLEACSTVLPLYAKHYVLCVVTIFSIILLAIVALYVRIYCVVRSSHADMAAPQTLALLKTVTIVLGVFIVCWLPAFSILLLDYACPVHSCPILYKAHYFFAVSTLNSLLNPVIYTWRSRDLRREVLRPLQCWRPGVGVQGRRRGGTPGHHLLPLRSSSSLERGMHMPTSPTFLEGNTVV

Compound	Kb [3]	Agonist efficacy class S1P1 [3]	Blockade of VPC22277 (10 nM)-induced migration [4]	Kb [5]	Agonist efficacy class S1P3 [5]	EC50 [6]	EC50 [7]	EC50 [8]	Agonist efficacy class S1P5 [8]	Ki [9]	Ki [10]	Agonist activity at the S1P1 receptor [3]	EC50 [3]	also measured
CCCCCCCCc1cccc(NC(=O)[C@H](N)CCP(=O)(O)O)c1 [VPC44116]	–	–	–	–	–	–	–	–	–	–	–	–	–	Metabolic stability in biologic systems [1]: at least 18 hours; Antagonist properties (potency, S1P receptor type selectivity) versus VPC23019 [2]: indistinguishable from VPC23019
CCCCCCCc1cccc(NC(=O)[C@H](N)COP(=O)(O)O)c1 [VPC25239]	562 nM	na (no agonist activity (<10% of S1P Emax))	Blockade	1410 nM	na (no agonist activity (<10% of S1P Emax))	> 10000 nM	166 nM	11.5 nM	(pa) (partial agonist activity (50-85% of S1P Emax))	97.7 nM	13.5 nM	–	–	Schild analysis flag on pKb S1P1 [3]: *; Potency at the S1P3 receptor relative to lead compound VPC23019 [9]: one log order more potent
CCCCCCc1cccc(NC(=O)[C@H](N)COP(=O)(O)O)c1 [VPC23031]	135 nM	na (no agonist activity (<10% of S1P Emax))	Blockade	10500 nM	na (no agonist activity (<10% of S1P Emax))	> 10000 nM	1100 nM	135 nM	(wpa) (weak partial agonist activity (10-50% of S1P Emax))	–	61.7 nM	–	–	Schild analysis flag on pKb S1P3 [5]: *
CCCCCCCCCCc1cccc(NC(=O)[C@H](N)COP(=O)(O)O)c1 [VPC23069]	–	–	–	–	(wpa) (weak partial agonist activity (10-50% of S1P Emax))	> 10000 nM	851 nM	> 10000 nM	–	–	–	agonists (or partial agonists)	81.3 nM	EC50 [5]: 1910 nM
CCCCCCCCc1ccccc1NC(=O)[C@H](N)COP(=O)(O)O [VPC23089]	490 nM	na (no agonist activity (<10% of S1P Emax))	Blockade	437 nM	na (no agonist activity (<10% of S1P Emax))	> 10000 nM	851 nM	> 10000 nM	–	1580 nM	891 nM	–	–	Schild analysis flag on pKb S1P3 [5]: *
CCCCCCCCCc1cccc(NC(=O)[C@H](N)COP(=O)(O)O)c1 [VPC23079]	–	–	–	–	na (no agonist activity (<10% of S1P Emax))	> 10000 nM	1170 nM	–	na (no agonist activity (<10% of S1P Emax))	–	–	agonists (or partial agonists)	676 nM	–
CCCCCCCCc1cccc(NC(=O)[C@@H](N)COP(=O)(O)O)c1 [VPC25027]	–	(pa) (partial agonist activity (50-85% of S1P Emax))	–	–	na (no agonist activity (<10% of S1P Emax))	–	–	–	–	–	–	agonists (or partial agonists)	2.24 nM	Agonist efficacy class S1P2 ([6]; relative to S1P Emax): na (no agonist activity (<10% of S1P Emax))
CCCCCCCCCCCCC/C=C/[C@@H](O)[C@@H](N)COP(=O)(O)O [Compound S1P, Sphingosine 1-phosphate, reference compound]	–	–	–	–	–	–	155 nM	–	–	7.59 nM	1.1 nM	–	4.07 nM	EC50 [5]: 2.24 nM; Calcium mobilization by compound alone [11]: dose-dependent calcium mobilization was observed
